In patent US6913708B2, “Cholesteric liquid crystal drying process and solvent” (3M Innovative Properties Company, priority 2003, dated 2005):

Test: Solubility of cholesteric liquid crystal monomer in hot (boiling) solvents
Type: physicochemical
Method: Comparison of the Solubility of Various Monomers in 1,3-dioxolane and other Solvents.
4-(2-Acryloyloxy-ethoxy)-benzoic acid 4′-cyano-biphenyl-4-yl ester is a cholesteric liquid crystal monomer with the structure given below and can be prepared as described in European Patent Application Publication No. 834754, incorporated herein by reference. [drawing 2]
4-(2-Acryloyloxy-ethoxy)-benzoic acid 4′-cyano-biphenyl-4-yl ester was dissolved in hot (boiling) tetrahydrofuran and hot 1,3-dioxolane. Only 20% of the monomer dissolved in the tetrahydrofuran, while 40% dissolved in the 1,3-dioxolane.

fraction of the monomer dissolved (hot 1,3-dioxolane): 40%
fraction of the monomer dissolved (hot (boiling) tetrahydrofuran): 20%
Compound: C=CC(=O)OCCOc1ccc(C(=O)Oc2ccc(-c3ccc(C#N)cc3)cc2)cc1 [4-(2-Acryloyloxy-ethoxy)-benzoic acid 4′-cyano-biphenyl-4-yl ester]
